Laboratory results published in patent US20090030066A1, “SMALL MOLECULES FOR THE PROTECTION OF PANCREATIC CELLS” (priority 2007, published 2009).

Key:
STZ-treated mice [1] = test: Blood glucose and body weight in STZ-treated mice, first experiment (not fasted); type: in vivo; conditions: for Body weight: STZ 210 mg/kg + compound 4.5 mg/kg i.p., unit not given, in g; for protection of islet β-cells: STZ-induced type 1 diabetes model; for effect on STZ-induced rise of blood glucose: STZ-treated animals, 4.5 mg/kg i.p.; for effect on STZ-induced body weight loss: STZ-treated mice, to day 10
Experimental: Male C57BL/6 mice (12 weeks old) were housed in a specific pathogen-free facility with a 12-h light/dark cycle and given free access to food and water. Animals weighing between 28-31 g were selected for the experiments. In each group, at the start of experiment the body weight among individual animals differed by less than 1-g.
One group of mice received no treatment over the entire experiment. A second group received only 4.5 mg per kg of CCompound1 on days −2, −1, 0, +1, +2, +3, +4, +5, +6 and +7. A third/fourth/fifth/sixth group of animals were treated i.p. with 210 mg/kg of STZ on day 0. The fourth, fifth, and sixth group of animals also received 4.5 mg per kg each of CCompound1 (CC1; 4th group) or CCompound3 (CC3; 5th group), or CCompound19 (CC19; 6th group) on days −2, −1, 0, +1, +2, +3, +4, +5, +6 and +7 (with STZ treatment given on day 0). Each group consisted of 7 animals. Body weight was measured regularly.
CC compounds were dissolved in physiological saline while STZ was dissolved in 100 mM sodium citrate (pH 4.5). All compounds were injected intraperitoneally in 0.5 ml volume. Control animals were injected physiological saline (0.5 ml) on the same days when other groups were treated with CC compounds.
Blood samples were taken from the eye (canthus) of the animals on days −1, 0, +1, +2, +3, +7 and +10, and glucose concentrations in whole blood samples were immediately measured with the commercially available fast Glucose C test. The animals were not fasted prior to taking the blood samples. The results are expressed as the mean values from 7 animals ±std. dev. (S.D.).

STZ-treated mice [2] = test: STZ-treated mice, second experiment: body weight to day 80 and survival; type: in vivo; conditions: STZ + compound
Excerpt: In a second similar experiment performed with 6 mice in each group, the changes in body weight were followed for up to 80 days (when the last STZ-treated mouse died), and survival was followed for up to 100 days.
For the body weight (on the 80th day) and survival the following values were obtained: Untreated (6 survivors), 37.7 g; STZ-treated (one last survivor died on day 80, others survived for 22, 25, 27, 60, 75 days), 26.0 g; CCompound1-treated (6 survivors), 36.0 g; STZ+CCompound1 treated (6 survivors), 33.4 g; STZ+CCompound3-treated (5 survivors; one mouse died on day 78), 32.5 g. At the start of the experiment (day 0), the average body weight ranged from 28.6 to 29.8 g. Accordingly, by day 80, STZ-treated animals that were also treated with CCompound1 and CCompound3 gained about 50% of the weight gained by the untreated animals.

[3] = test system: AR42J rat pancreatic tumor cell line; test: MTT proliferation of AR42J pancreatic tumor cells; type: cell-based; conditions: 96 h
Excerpt: In the Examples below, an MTT assay was used to determine the relative number of viable cells after treatments. This calorimetric assay is based on the ability of living cells, but not dead cells, to reduce 3-(4,5-dimethyl thiazol-2-yl)-2,5-diphenyltetrazolium bromide. [Carmichael, J, De Graff, W. G., Gazdar, A. F., Minna, J. D. and Mitchell, J. B. (1987) Evaluation of tetrazolium-based semiautomated calorimetric assay: Assessment of chemosensitivity testing. Cancer Res. 47, 936-942], which is hereby incorporated by reference. For this assay, cells were plated in 96-well plates, and the MTT assay was performed as described in the above article both in untreated and treated cell cultures. The MTT assay also was performed at the time when the treatment was started to allow for assessment of the proliferation and survival rates in the control and treated cell cultures. In the MTT assay, higher values mean proportionally higher numbers of viable cells.
The AR42J rat pancreatic tumor cell line, purchased from ATTC (catalog number: CRL-1492), was propagated in modified Ham's medium containing 20% fetal bovine serum. These cells, derived from a transplantable tumor of the exocrine pancreas, contain significant amounts of amylase and other exocrine enzymes and they produce tumors in athymic mice.
For the experiment, cells were split in 96-well plates at 15,000 cells per well. After 24 hours, the medium was changed for fresh medium (0 hour) and various concentrations of CCompound1 and CCompound3 were added and incubations continued for 96 hours. The MTT assay was used to determine the relative number of viable cells. From the data shown in TABLE 13, in the 2-25 μM concentration range CC compounds had only inhibitory effects on the proliferation of pancreatic cancer cells.

[4] = STZ 210 mg/kg i.p. day 0 + compound 4.5 mg/kg i.p. days −2 to +7, day 0
[5] = STZ 210 mg/kg i.p. day 0 + compound 4.5 mg/kg i.p. days −2 to +7, day +1
[6] = STZ 210 mg/kg i.p. day 0 + compound 4.5 mg/kg i.p. days −2 to +7, day +2
[7] = STZ 210 mg/kg i.p. day 0 + compound 4.5 mg/kg i.p. days −2 to +7, day +3
[8] = STZ 210 mg/kg i.p. day 0 + compound 4.5 mg/kg i.p. days −2 to +7, day +7
[9] = STZ 210 mg/kg i.p. day 0 + compound 4.5 mg/kg i.p. days −2 to +7, day +10
[10] = STZ 210 mg/kg i.p. day 0 + compound 4.5 mg/kg i.p. days −2 to +7, day −1

| SMILES | Body weight (STZ-treated mice [1]; day 0) | Body weight (STZ-treated mice [1]; day +1) | Body weight (STZ-treated mice [1]; day +2) | Body weight (STZ-treated mice [1]; day +3) | Body weight (STZ-treated mice [1]; day +7) | Body weight (STZ-treated mice [1]; day +10) | Blood glucose (STZ-treated mice [1]; [4]) [mM] | Blood glucose (STZ-treated mice [1]; [5]) [mM] | Blood glucose (STZ-treated mice [1]; [6]) [mM] | Blood glucose (STZ-treated mice [1]; [7]) [mM] | Blood glucose (STZ-treated mice [1]; [8]) [mM] | Blood glucose (STZ-treated mice [1]; [9]) [mM] | Blood glucose (STZ-treated mice [1]; [10]) [mM] | protection of islet β-cells (STZ-treated mice [1]) | effect on STZ-induced rise of blood glucose (STZ-treated mice [1]) | effect on STZ-induced body weight loss (STZ-treated mice [1]) | also measured |
| --- | --- | --- | --- | --- | --- | --- | --- | --- | --- | --- | --- | --- | --- | --- | --- | --- | --- |
| CC[N+](C)(CC)CCOCc1ccc2sc3ccccc3c(=O)c2c1 [CCcompound3] | 28.0 ± 0.9 | 28.2 ± 0.8 | 25.3 ± 0.5 | 25.3 ± 0.6 | 25.2 ± 0.9 | 24.7 ± 1.3 | 4.7 ± 0.7 | 6.5 ± 0.7 | 10.7 ± 1.1 | 13.0 ± 1.1 | 14.2 ± 1.3 | 13.6 ± 1.6 | 4.6 ± 0.5 | clearly protected β-cell function | prevent drastic increase in blood glucose level | reduced the effect of STZ on body weight | weight gained by day 80 relative to the weight gained by the untreated animals (STZ-treated mice [2]): about 50%; body weight on the 80th day (STZ-treated mice [2]; 6 mice per group): 32.5 g; survivors (STZ-treated mice [2]; 80th day, 6 mice per group): 5; A540 (MTT, relative number of viable cells) ([3]; 2 μM): 1.17; A540 (MTT, relative number of viable cells) ([3]; 5 μM): 0.868 ± 0.093; A540 (MTT, relative number of viable cells) ([3]; 10 μM): 0.745 ± 0.052; A540 (MTT, relative number of viable cells) ([3]; 25 μM): 0.675 ± 0.064 |
| C[N+](C)(C)CCC=C1c2ccccc2Sc2ccccc21.[I-] [CCcompound19, N,N,N-trimethyl-3-(9H-thioxanthen-9-ylidene)-propane-1-aminium iodide] | 28.1 ± 0.5 | 28.5 ± 1.2 | 26.4 ± 0.8 | 26.8 ± 1.0 | 26.2 ± 0.9 | 26.4 ± 1.7 | 4.8 ± 0.3 | 5.9 ± 0.6 | 8.7 ± 0.8 | 10.5 ± 0.9 | 12.5 ± 1.1 | 11.9 ± 1.1 | 4.3 ± 0.3 | protected islet β-cells | prevent drastic increase in blood glucose level | reduced the effect of STZ on body weight | – |
